Where two headings read alike, the source gives them in different places.
How the values were obtained:
mice = assay: Pulmonary thromboembolism caused by collagen/epinephrine; type: in vivo; conditions: for survival rate after 1 day: n=4
Description: (A) Mice were i.v. injected with vehicle (DMSO as control), nstpbp5185 (10 μg/g) or Ctkf6f2 (10 μg/g), then injected with collagen/epinephrine to induce pulmonary embolism model. After the onset of respiratory arrest, lungs were excised. […] Histologic analysis was performed on H&E-stained sections of lung from each mouse. […] (B) Survival rate of mice injected with DMSO as control, nstpbp5185 (10 μg/g) or Ctkf6f2 (10 μg/g) after induction of pulmonary thromboembolism in 30 min, 1 hr and 24 hr (n=4). (C) Representative images of lung isolated after the onset of respiratory arrest, but while the heart was still beating, 0.5 ml of Evans blue solution was injected into the heart. Lungs were excised, and photographed.
Male mice (ICR, 25±3 g) received collagen (0.6 μg/g) plus epinephrine (0.2 μg/g) by tail vein injection. While the respiration is very weak and the heart was still beating, 0.5 mL of Evans blue solution (1% in saline; Sigma) was injected into the heart. Lungs were excised, photographed and fixed with paraldehyde, embedded into paraffin, and sectioned. Histological analysis was performed on hematoxylin and eosin-stained (H&E) sections of lung from each mouse. Nstpbp5185 (10 μg/g) or DMSO vehicle was intravenously given prior to collagen/epinephrine. Mortality after challenge was calculated as percentage of death after injection of collagen/epinephrine, the end time will be […].

[1] = test system: human platelet suspension; assay: ADP-induced platelet aggregation in human platelet suspension; type: cell-based
Description: (§1) Human platelet suspension (PS) was prepared according to the method described previously. Briefly, blood sample, freshly obtained from healthy volunteers who had taken no medications during the preceding 2 weeks, was treated with acid citrate/dextrose (ACD) in a volume ratio of 9:1. After centrifugation at 120 g, 25° C. for 9 min, platelet-rich plasma was transferred into another plastic tube and incubated with heparin (6.4 U/ml) as well as prostaglandin E1 (1 μM). Platelets were spun down by centrifugation at 500 g, 25° C. for 8 min and subsequently washed two times with Tyrode solution (NaH2PO4 0.4 mM; NaCl 136.9 mM; KCl […]; NaHCO3 11.9 mM; CaCl2 2 mM; MgCl2 2.1 mM; glucose 11.1 mM; BSA 3.5 mg/ml; pH 7.35-7.4). The washed platelets were finally suspended in Tyrode's solution and the platelet count was adjusted to 3.75×10^8 platelets/ml. For platelet-rich plasma (PRP) preparation, whole blood was anticoagulated with 1/10 vol of sodium citrate (3.8%, w/v) and centrifuged at 150 g, 25° C. for 9 min.
Platelet aggregation was measured turbidimetrically with a Lumi-aggregometer (Payton Scientific) at 37° C. under stirring condition (900 rpm). Platelet suspensions were prewarmed to 37° C. for 2 min in a silicone-treated glass cuvette. Nstpbp5185 was added 3 min before the addition of platelet-aggregation inducers. The extent of platelet aggregation was determined by recording the increase of light transmission relative to that of control (maximal aggregation, as 100%) for 6 min after the addition of inducer. The final volume and platelet count for measuring platelet aggregation were 500 μl and 3×10^8/ml, respectively.

rats = assay: Gastric damage in rats; type: in vivo; conditions: 40 μg g^−1 oral, 3 h
Description: Rats (Wistar) were fasted overnight then given aspirin at dose of 150 mg/kg or nstpbp5185 at 40 mg/kg. Both drugs were suspended in 1% carboxymethylcellulose. Three hours later, the rats were sacrificed, the stomach excised, and the extent of hemorrhagic erosions scored by an observer unaware of treatment the rats received. Each lesion larger than 2 mm was counted for comparison. The stomach was fixed in formalin (pH, 7.4) and photographed.

TP receptor = molecular target: T1, TP receptor (Homo sapiens, UniProt P21731); assay: [3H]SQ-29548 binding to TP receptor of recombinant HEK-293 cells
T1 construct: expressed in transfected cells; host or cells: HEK-293
T1 sequence (P21731 1-343): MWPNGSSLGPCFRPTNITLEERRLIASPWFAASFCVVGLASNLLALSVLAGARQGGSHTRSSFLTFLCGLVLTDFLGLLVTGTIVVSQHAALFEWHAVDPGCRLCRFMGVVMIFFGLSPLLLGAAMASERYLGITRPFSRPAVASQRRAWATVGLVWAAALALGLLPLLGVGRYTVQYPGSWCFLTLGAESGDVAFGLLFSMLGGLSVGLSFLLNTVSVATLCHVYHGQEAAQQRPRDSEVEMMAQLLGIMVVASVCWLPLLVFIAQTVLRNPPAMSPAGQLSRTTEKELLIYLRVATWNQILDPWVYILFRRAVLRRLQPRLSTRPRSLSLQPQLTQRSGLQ
Description: Freshly prepared samples of this suspension were incubated with [^3H]SQ-29548 (5 nM final concentration), for 60 min at 25° C. The displacement was initiated by addition of nstpbp5185 dissolved in the same buffer. After incubation (30 min, 25° C.), ice-cold Tris-HCl buffer (10 mM, pH 7.4) was added, the sample was rapidly filtered through a glass fiber filter, and the tube rinsed twice with ice-cold buffer. The filters were then placed in plastic scintillation vials containing an emulsion-type scintillation mixture, and the radioactivity was counted.

[2] = test system: human platelet suspension; assay: Thrombin-induced platelet aggregation in human platelet suspension; type: cell-based; conditions: data not shown
Description: as §1
(§2) Platelet aggregation was measured turbidimetrically with a Lumi-aggregometer (Payton Scientific) at 37° C. under stirring condition (900 rpm). […] The extent of platelet aggregation was determined by recording the increase of light transmission relative to that of control (maximal aggregation, as 100%) for 6 min after the addition of inducer. […]

mice carotid artery = assay: FeCl3-induced thrombus formation in mice carotid artery; type: in vivo; conditions: intravenous administration
Description: FIG. 14 The antithrombotic activity of nstpbp5185 in FeCl3-induced thrombi formation in mice carotid artery. (A) Mice were intravenously administered with Heparin (10 or 100 U kg^−1), Aspirin (40 or 80 μg g^−1), or different doses of nstpbp5185 (B). After 5 min, FeCl3 injury was induced by a filter paper saturated with ferric chloride solution (10%). After removal of the paper, carotid blood flow (ml min^−1) was monitored continuously until thromboembolism formation or for 60 min. (C) Mice were orally administered with different doses of Aspirin and nstpbp5185 (D). Both drugs were suspended in 1% CMC. Blood flow monitoring were recorded used analyzed Labchart software (AD instruments). Data are presented as the mean±SEM (n≧3). **P<0.01 and ***P<0.001 as compared with the vehicle control (DMSO).
Mice were intravenously or orally administered with different doses of nstpbp5185.

[3] = test system: human platelet-rich plasma; assay: U46619-induced platelet aggregation in human platelet-rich plasma; type: cell-based; conditions: U46619 1 μM
Description: as §1, §2

[4] = test system: human platelet-rich plasma; assay: Arachidonic acid-induced platelet aggregation in human platelet-rich plasma; type: cell-based; conditions: arachidonic acid 200 μM
Description: as §1, §2

Structure (SMILES)	survival rate after 1 day (mice; 10 μg/g i.v.) [%]	mortality after collagen/epinephrine within 1 hr (mice; 5 and 10 μg g^−1, intravenous injection)	microemboli in lung sections (mice; nstpbp5185-treated mice vs control)	effect on platelet aggregation caused by ADP ([1]; data not shown)	% inhibition ADF ([1]; human platelet suspension, preliminary, compound concentration not given) [%]	gastric lesions (>2 mm) (rats)	Thromboxane receptor (TP receptor; Table III arrows)	IC50 (TP receptor; [3H]SQ-29548 5 nM, read-out: IC50 in displacing 3H-SQ-29548 from TP receptor expressed on HEK-293 cells) [µM]	IC50 (TP receptor; read-out: thromboxane A2 receptor blockade IC50) [µM]	effect on platelet aggregation caused by thrombin [2]	ED50 FeCl3-induced thrombus formation (mice carotid artery)	emboli in lung sections compared with 5185 (mice; 10 μg/g i.v.)	IC50 [3] [µM]	IC50 [4] [µM]
Cc1ccc(-c2nc3ccccc3n2Cc2ccccc2)o1 [Example 6, 1-Benzyl-2-(5-methyl-2-furyl)benzimidazole]	100	completely protected mice from death	few microemboli	little effects	10.9	did not cause significant lesion	↓	~0.1	0.1	little effects	≈ 2.6 μg g^−1	–	–	–
Cc1ccc(-c2nc3ccc(F)cc3n2Cc2cccc(F)c2)o1 [Ctkf6f2, 6-fluoro-1-(3-fluorobenzyl)-2-(5-methyl-2-furyl)benzimidazole]	100	–	–	–	–	–	–	–	–	–	–	smaller emboli	3.27 ± 1.01	8.87 ± 2.52

Reference: patent US20170152245A1 (National Taiwan University, priority 2015, published 2017)
